# Measured values: patent US20150105252A1, “SUBSTITUTED PYRAZOLES AS HERBICIDES” (E I DU PONT DE NEMOURS AND COMPANY, priority 2013, published 2015)
# Experiments:
# oat, wild = assay: Test C postemergence; format: in vivo, Avena fatua; details: for Plant response rating (scale of 0 to 100 where 0 is no effect and 100 is complete control), Oat, Wild: Postemergence, 31 g ai/ha, visually evaluated after 13 to 15 days; for Oat, Wild plant response rating / Plant response rating, Oat, Wild: postemergence; for Oat, Wild plant response rating: 62 g ai/ha, scale 0 to 100
# Outline: (§1)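 Postemergence values come from plants sprayed at the 1- to 4-leaf stage (2–18 cm) in peat moss–vermiculite medium; preemergence values from seeds treated in a loam–sand blend. Both evaluated visually against controls after 13–15 greenhouse days, scale 0–100.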
# barnyardgrass = assay: Test B flood; format: in vivo, Echinochloa crus-galli; details: 250 g ai/ha, visual rating on 0 to 100 scale (0 no effect, 100 complete control), 13 to 15 days
# Outline: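 Flooded-pot test: compound dosed into 3 cm of standing water above soil when plants had two leaves. Visual control ratings (0–100) versus untreated plants after 13–15 d.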
# foxtail, giant = assay: Test C preemergence; format: in vivo, Setaria faberii; details: preemergence; for Plant response rating, Foxtail, Giant: 125 g ai/ha, scale 0 to 100, 0 = no effect, 100 = complete control
# Outline: as §1
# oilseed rape [1] = assay: Test C postemergence; format: in vivo, Brassica napus; details: for Oilseed Rape plant response rating / Plant response rating, Oilseed Rape: postemergence; for Oilseed Rape plant response rating: 62 g ai/ha, scale 0 to 100
# Outline: as §1
# nutsedge, yellow = assay: Test C postemergence; format: in vivo, Cyperus esculentus; details: for Plant response rating (scale of 0 to 100 where 0 is no effect and 100 is complete control), Nutsedge, Yellow: Postemergence, 31 g ai/ha, visually evaluated after 13 to 15 days; for Nutsedge, Yellow plant response rating / Plant response rating, Nutsedge, Yellow: postemergence; for Nutsedge, Yellow plant response rating: 62 g ai/ha, scale 0 to 100
# Outline: as §1
# ragweed [2] = assay: Test C preemergence; format: in vivo, Ambrosia elation; details: preemergence; for Plant response rating, Ragweed: 125 g ai/ha, scale 0 to 100, 0 = no effect, 100 = complete control
# Outline: as §1
# pigweed [3] = assay: Test C preemergence; format: in vivo, Amaranthus retroflexus; details: preemergence; for Plant response rating, Pigweed: 125 g ai/ha, scale 0 to 100, 0 = no effect, 100 = complete control
# Outline: as §1
# oilseed rape [4] = assay: Test C preemergence; format: in vivo, Brassica napus; details: preemergence; for Plant response rating, Oilseed Rape: 125 g ai/ha, scale 0 to 100, 0 = no effect, 100 = complete control
# Outline: as §1
# pigweed [5] = assay: Test A preemergence; format: in vivo, Amaranthus retroflexus; details: preemergence; for Pigweed plant response rating (0 to 100 scale): 125 g ai/ha, visual injury approx. 10 days after treatment
# Outline: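 Visual injury rating, 0–100 (0 no effect, 100 complete control), vs untreated controls ~10 days after treatment in greenhouse. Pre: directed soil spray on seeded loam/sand. Post: 2–10 cm plants, 1–2 leaf stage. Formulation: non-phytotoxic solvent mix + surfactant.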
# ragweed [6] = assay: Test C postemergence; format: in vivo, Ambrosia elation; details: for Plant response rating, Ragweed: postemergence
# Outline: as §1
# kochia = assay: Test C postemergence; format: in vivo, Kochia scoparia; details: for Plant response rating (scale of 0 to 100 where 0 is no effect and 100 is complete control), Kochia: Postemergence, 31 g ai/ha, visually evaluated after 13 to 15 days; for Kochia plant response rating / Plant response rating, Kochia: postemergence; for Kochia plant response rating: 62 g ai/ha, scale 0 to 100
# Outline: as §1
# soybean = assay: Test C postemergence; format: in vivo, Glycine max; details: for Plant response rating, Soybean / Soybean plant response rating: postemergence; for Plant response rating, Soybean: 250 g ai/ha, scale 0 to 100 (0 no effect, 100 complete control); for Soybean plant response rating: 125 g ai/ha, scale 0 to 100, 0 no effect, 100 complete control
# Outline: as §1
# [7] = 250 g ai/ha, scale 0 to 100 (0 no effect, 100 complete control)
# [8] = 125 g ai/ha, scale 0 to 100, 0 no effect, 100 complete control
# [9] = 31 g ai/ha, visual rating, scale 0 to 100 (0 no effect, 100 complete control), 13 to 15 days
# [10] = 62 g ai/ha, scale 0 to 100 (0 no effect, 100 complete control), 13 to 15 days
# [11] = 250 g ai/ha, scale 0 to 100, 0 is no effect, 100 is complete control
# [12] = Postemergence, 31 g ai/ha, visually evaluated after 13 to 15 days
structure (smiles),measurement,setting,value
O=C(NC1CC1)c1cc(CCCl)n(Cc2ccnc(C(F)(F)F)c2)n1 [Compound 144],"Plant response rating (scale of 0 to 100 where 0 is no effect and 100 is complete control), Oat, Wild","oat, wild",15
same,"Oat, Wild plant response rating","oat, wild",10
same,"Plant response rating, Oat, Wild","oat, wild; [7]",45
same,"Plant response rating, Oat, Wild","oat, wild; [8]",20
same,"Plant response rating, Barnyardgrass",barnyardgrass,30
same,"Foxtail, Giant plant response rating","foxtail, giant; [9]",75
same,"Foxtail, Giant plant response rating","foxtail, giant; [10]",100
same,"Plant response rating, Foxtail, Giant","foxtail, giant; 13 to 15 days",100
same,"Foxtail, Giant plant response rating","foxtail, giant; [11]",100
same,"Plant response rating (scale of 0 to 100 where 0 is no effect and 100 is complete control), Oilseed Rape",oilseed rape [1]; [12],50
same,Oilseed Rape plant response rating,oilseed rape [1],50
same,"Plant response rating, Oilseed Rape",oilseed rape [1]; [7],65
same,"Plant response rating, Oilseed Rape",oilseed rape [1]; [8],60
same,"Plant response rating (scale of 0 to 100 where 0 is no effect and 100 is complete control), Nutsedge, Yellow","nutsedge, yellow",10
same,"Nutsedge, Yellow plant response rating","nutsedge, yellow",5
same,"Plant response rating, Nutsedge, Yellow","nutsedge, yellow; [7]",35
same,"Plant response rating, Nutsedge, Yellow","nutsedge, yellow; [8]",5
same,Ragweed plant response rating,ragweed [2]; [9],85
same,Ragweed plant response rating,ragweed [2]; [10],90
same,"Plant response rating, Ragweed",ragweed [2]; 13 to 15 days,95
same,Ragweed plant response rating,ragweed [2]; [11],98
same,Pigweed plant response rating,pigweed [3]; [9],98
same,Pigweed plant response rating,pigweed [3]; [10],100
same,"Plant response rating, Pigweed",pigweed [3]; 13 to 15 days,100
same,Pigweed plant response rating,pigweed [3]; [11],100
same,Oilseed Rape plant response rating,oilseed rape [4]; [9],80
same,Oilseed Rape plant response rating,oilseed rape [4]; [10],95
same,"Plant response rating, Oilseed Rape",oilseed rape [4]; 13 to 15 days,100
same,Oilseed Rape plant response rating,oilseed rape [4]; [11],100
same,Pigweed plant response rating (0 to 100 scale),pigweed [5],100
same,Pigweed plant response rating,"pigweed [5]; 500 g ai/ha, visual injury after approx. 10 days, 0 to 100 scale (0 no effect, 100 complete control)",100
same,"Plant response rating (scale of 0 to 100 where 0 is no effect and 100 is complete control), Ragweed",ragweed [6]; [12],10
same,"Plant response rating, Ragweed",ragweed [6]; [7],75
same,"Plant response rating, Ragweed",ragweed [6]; [8],35
same,"Plant response rating (scale of 0 to 100 where 0 is no effect and 100 is complete control), Kochia",kochia,75
same,Kochia plant response rating,kochia,85
same,"Plant response rating, Kochia",kochia; [7],95
same,"Plant response rating, Kochia",kochia; [8],95
same,"Plant response rating (scale of 0 to 100 where 0 is no effect and 100 is complete control), Soybean",soybean; [12],35
same,"Plant response rating, Soybean",soybean,95
same,Soybean plant response rating,soybean,75
CCCc1cc(C(=O)NC2CC2)nn1Cc1ccnc(OC(F)F)c1 [Compound 205],"Plant response rating (scale of 0 to 100 where 0 is no effect and 100 is complete control), Oat, Wild","oat, wild",5
same,"Oat, Wild plant response rating","oat, wild",5
same,"Plant response rating, Oat, Wild","oat, wild; [7]",10
same,"Plant response rating, Oat, Wild","oat, wild; [8]",5
same,"Plant response rating, Barnyardgrass",barnyardgrass,50
same,"Foxtail, Giant plant response rating","foxtail, giant; [9]",100
same,"Foxtail, Giant plant response rating","foxtail, giant; [10]",100
same,"Plant response rating, Foxtail, Giant","foxtail, giant; 13 to 15 days",100
same,"Foxtail, Giant plant response rating","foxtail, giant; [11]",100
same,Oilseed Rape plant response rating,oilseed rape [1],25
same,"Plant response rating, Oilseed Rape",oilseed rape [1]; [7],50
same,"Plant response rating, Oilseed Rape",oilseed rape [1]; [8],50
same,"Plant response rating (scale of 0 to 100 where 0 is no effect and 100 is complete control), Nutsedge, Yellow","nutsedge, yellow",5
same,"Nutsedge, Yellow plant response rating","nutsedge, yellow",5
same,"Plant response rating, Nutsedge, Yellow","nutsedge, yellow; [7]",15
same,"Plant response rating, Nutsedge, Yellow","nutsedge, yellow; [8]",15
same,Ragweed plant response rating,ragweed [2]; [9],80
same,Ragweed plant response rating,ragweed [2]; [10],100
same,"Plant response rating, Ragweed",ragweed [2]; 13 to 15 days,98
same,Ragweed plant response rating,ragweed [2]; [11],100
same,Pigweed plant response rating,pigweed [3]; [9],95
same,Pigweed plant response rating,pigweed [3]; [10],100
same,"Plant response rating, Pigweed",pigweed [3]; 13 to 15 days,100
same,Pigweed plant response rating,pigweed [3]; [11],100
same,Oilseed Rape plant response rating,oilseed rape [4]; [9],100
same,Oilseed Rape plant response rating,oilseed rape [4]; [10],100
same,"Plant response rating, Oilseed Rape",oilseed rape [4]; 13 to 15 days,100
same,Oilseed Rape plant response rating,oilseed rape [4]; [11],100
same,Pigweed plant response rating (0 to 100 scale),pigweed [5],100
same,"Plant response rating, Ragweed",ragweed [6]; [7],80
same,"Plant response rating, Ragweed",ragweed [6]; [8],60
same,"Plant response rating (scale of 0 to 100 where 0 is no effect and 100 is complete control), Kochia",kochia,85
same,Kochia plant response rating,kochia,90
same,"Plant response rating, Kochia",kochia; [7],95
same,"Plant response rating, Kochia",kochia; [8],95
same,"Plant response rating, Soybean",soybean,90
same,Soybean plant response rating,soybean,70
